{"source": "patent US20260048062A1", "about": "“FUSED AMINO PYRIMIDINE COMPOUNDS FOR TREATMENT OF PSYCHOSIS AND PSYCHOTIC DISORDERS” (Ovid Therapeutics Inc., priority 2024, published 2026)", "key": {"[1]": {"assay": "PK study, brain and plasma levels by LC-MS/MS", "format": "in vivo", "settings": "mice"}, "[2]": {"tested_on": "acute brain slices", "assay": "Late recurrent discharges in acute brain slices exposed to 0-Mg"}, "[3]": {"tested_on": "panel of 144 protein kinases", "assay": "SelectScreen panel of 144 protein kinases", "format": "biochemical", "settings": "includes PKC isoforms, OSR1, SPAK (STK39), WNK", "method": "Aliquots of HEK-293 cells expressing KCC2 were exposed to 30 μM SSA, heated from 37-55° C. The remaining level of soluble native KCC2 at each temperature was measured by immunoblotting and normalized to the level seen at 37° C. which was given a value of 1. […] This panel included protein kinase C isoforms, OSR1, SPAK (STK39) and with-no-lysine kinases (WNK), all of which phosphorylate KCC2 on multiple residues to indirectly modify its activity (Kahle et al., 2013, supra; Smalley et al., 2020, supra)."}, "[4]": {"target": "T1, NKCC1 (Homo sapiens, UniProt P55011)", "T1 construct": "expressed in transfected cells; host or cells: HEK-293", "T1 sequence (P55011 1-1212)": "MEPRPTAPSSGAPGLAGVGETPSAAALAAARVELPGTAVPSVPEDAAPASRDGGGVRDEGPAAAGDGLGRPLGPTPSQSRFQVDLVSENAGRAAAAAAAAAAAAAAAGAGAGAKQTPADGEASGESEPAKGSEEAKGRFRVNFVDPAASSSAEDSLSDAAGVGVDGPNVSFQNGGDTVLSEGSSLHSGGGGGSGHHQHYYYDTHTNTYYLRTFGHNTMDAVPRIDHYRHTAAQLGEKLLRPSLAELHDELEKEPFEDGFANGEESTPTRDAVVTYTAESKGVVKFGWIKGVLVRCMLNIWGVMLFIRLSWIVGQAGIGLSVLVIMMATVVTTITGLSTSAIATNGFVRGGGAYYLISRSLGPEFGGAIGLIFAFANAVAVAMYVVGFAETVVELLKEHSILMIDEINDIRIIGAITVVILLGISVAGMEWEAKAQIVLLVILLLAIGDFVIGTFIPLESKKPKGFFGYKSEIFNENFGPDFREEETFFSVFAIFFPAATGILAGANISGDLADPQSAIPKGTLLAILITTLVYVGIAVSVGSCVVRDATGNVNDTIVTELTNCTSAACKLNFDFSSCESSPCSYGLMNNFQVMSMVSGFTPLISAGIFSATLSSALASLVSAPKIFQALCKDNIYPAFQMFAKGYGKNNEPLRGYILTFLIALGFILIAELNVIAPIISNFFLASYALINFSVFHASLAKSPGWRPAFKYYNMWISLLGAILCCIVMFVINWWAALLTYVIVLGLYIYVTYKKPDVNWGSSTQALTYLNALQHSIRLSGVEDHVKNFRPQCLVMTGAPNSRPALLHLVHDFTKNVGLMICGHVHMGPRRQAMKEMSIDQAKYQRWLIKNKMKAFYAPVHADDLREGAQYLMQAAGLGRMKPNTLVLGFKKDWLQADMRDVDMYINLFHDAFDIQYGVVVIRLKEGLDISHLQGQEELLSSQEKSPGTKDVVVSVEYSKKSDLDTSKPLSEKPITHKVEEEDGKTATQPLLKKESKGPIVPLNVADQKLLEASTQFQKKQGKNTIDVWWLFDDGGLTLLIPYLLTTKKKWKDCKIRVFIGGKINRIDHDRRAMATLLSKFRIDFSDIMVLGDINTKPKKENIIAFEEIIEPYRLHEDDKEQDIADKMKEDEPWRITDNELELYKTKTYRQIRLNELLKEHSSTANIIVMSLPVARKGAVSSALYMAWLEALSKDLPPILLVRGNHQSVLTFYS", "assay": "Tl+ flux assay, HEK-293 cells expressing NKCC1", "format": "cell-based", "settings": "read-out: concentration at which effects on NKCC1 were seen", "method": "FLIPR TI Flux assay. HEK-293 cells were washed with HBSS, and then incubated with loading buffer containing TI sensitive fluorescent dye (https://www.moleculardevices.com), 20 μM bumetanide 20 μM ouabain and 2.5 mM probenecid for 1 h at room temperature (RT) under control conditions or with drugs in the dark using a FlexStation 3 microplate reader (Molecular Devices) and imaged […] for 30 min. Stimulus buffer was added containing 5 mM K^+/0.5 mM Tl^+ and cells were imaged every 1.5 over a 190 second time course The initial rate Tl^+ uptake (Relative Fluorescence Units (RFU) per second) was determined following addition of the stimulus buffer as outlined previously (Conway et al., 2017, supra) (Lee et al., 2022, supra).\nCompared to KCC2, effects on KCC3, KCC4, and NKCC1 were only seen at concentrations more than 35-fold that of KCC2 (>100 μM) (FIG. 1G)."}}}
{"smiles": "C[C@@H]1CN(c2nc3c(c(Nc4ccc(C5CCCCC5)cc4)n2)COC3)CCO1", "note": "[Compound A, (R)—N-(4-cyclohexylphenyl)-2-(2-methylmorpholino)-5,7-dihydrofuro[3,4-d]pyrimidin-4-amine]", "values": [{"measurement": "time at which accumulation in the brain was detected", "setting": "[1]; 50 mg/kg SC", "value": 30, "unit": "min"}, {"measurement": "time by which accumulation in the brain was evident", "setting": "[1]; single 25 mg/kg IV bolus", "value": "≤ 30", "unit": "min"}, {"measurement": "development of late recurrent discharges (LRDs)", "setting": "[2]", "value": "reduced"}, {"measurement": "activity of a panel of 144 protein kinases", "setting": "[3]", "value": "did not modify the activity"}, {"measurement": "EC50", "setting": "[4]", "value": "> 100", "unit": "µM"}]}
